Patent US11219625B2, “Inhibitors of N-linked glycosylation and methods using same” (YALE UNIVERSITY, priority 2015, dated 2022)

Legend:
[1] = tested on: H1581 cells; test: MTT proliferation assay, H1581; format: cell-based; settings: H1581, 10 μM NGI-1, 5 d
Experimental: FIGS. 4A-4H illustrate the finding that NGI-1 blocks RTK driven proliferation. FIG. 4A illustrates western blot analysis of EGFR phosphorylation (Y1173) and gel mobility in PC9 (EGFR-mutant) and A549 (k-ras mutant) NSCLC cells after 10 μM NGI-1 treatment for 24 h. […] Actin expression was used as a control for protein loading. FIG. 4B illustrates MTT assays results of PC9 following treatment with 10 μM NGI-1 or 1 μM tunicamycin for a total of 5 d. Relative proliferation id reported in fold increase from day 0. FIG. 4C illustrates MTT assays results of A549 following treatment with 10 μM NGI-1 or 1 μM tunicamycin for a total of 5 d. Relative proliferation id reported in fold increase from day 0. FIG. 4D illustrates protein phosphorylation profiles of PC9 cells analyzed by phospho-protein array to assess the response of PC9 to 10 μM NGI-1 for 24 h. FIG. 4E illustrates protein phosphorylation profiles of A549 cells analyzed by phospho-protein array to assess the response of A549 to 10 μM NGI-1 for 24 h. […]
Growth rates were determined by CellTiter 96 NonRadioactive Cell Proliferation Assay (Promega; Madison, Wis. USA) according to the manufacturer's directions. […] Cell numbers were estimated after 0, 3, and 5 days by adding MTT [(3-(4,5-Dimethylthiazol-2-yl)-2,5-diphenyltetrazolium bromide] reagent to the wells 4 hours before taking the spectrophotometric reading (absorbance at 570 nm).

[2] = tested on: H3255 cells; test: MTT proliferation assay, H3255; format: cell-based; settings: H3255, 10 μM NGI-1, 5 d, p<0.05
Experimental: FIGS. 7A-7D illustrate EGFR kinase domain mutant cell lines growth inhibition and cell cycle arrest response to NGI-1. FIG. 7A illustrates MTT assays to determine the effects of NGI-1 on growth of H3255 cells. FIG. 7B illustrates MIT assays to determine the effects of NGI-1 on growth of HCC827 cells. EGFR kinase domain mutant cell lines H3255 and HCC827 cells were untreated or treated with 10 μM NGI-1 for 5 d. […] FIG. 7C illustrates cell cycle distribution of H3255 after 24 h NGI-1 treatment for 24 h determined by flow cytometry. FIG. 7D illustrates cell cycle distribution of HCC827 after 24 h NGI-1 treatment for 24 h determined by flow cytometry.
Growth rates were determined by CellTiter 96 NonRadioactive Cell Proliferation Assay (Promega; Madison, Wis. USA) according to the manufacturer's directions. Briefly, NSCLC cells (2×10^3) untreated or treated with […] NGI-1 or 1 μM Tn, were seeded in triplicates in 96-wells plates and grown in culture medium containing […]. Cell numbers were estimated after 0, 3, and 5 days by adding MTT [(3-(4,5-Dimethylthiazol-2-yl)-2,5-diphenyltetrazolium bromide] reagent to the wells 4 hours before taking the spectrophotometric reading (absorbance at 570 nm).

## Cc1cnc(NC(=O)c2cc(S(=O)(=O)N(C)C)ccc2N2CCCC2)s1 [NGI-1, 5-(N,N-Dimethylsulfamoyl)-N-(5-methylthiazol-2-yl)-2-(pyrrolidin-1-yl)benzamide]
[1]
  effect on proliferation, MTT: blocked proliferation of the H1581 cell line
[2]
  reduction of proliferation, MTT: > 45%
